These results are taken from article PMC7366380, “Discovery of a Potent and Selective Covalent Inhibitor and Activity-Based Probe for the Deubiquitylating Enzyme UCHL1, with Antifibrotic Activity” (Journal of the American Chemical Society, 2020).

“Also recorded” adds a separate entry of the source.

Test [1] deals with T1, UCHL1 (Homo sapiens, UniProt P09936).
T1 sequence (P09936 1-223): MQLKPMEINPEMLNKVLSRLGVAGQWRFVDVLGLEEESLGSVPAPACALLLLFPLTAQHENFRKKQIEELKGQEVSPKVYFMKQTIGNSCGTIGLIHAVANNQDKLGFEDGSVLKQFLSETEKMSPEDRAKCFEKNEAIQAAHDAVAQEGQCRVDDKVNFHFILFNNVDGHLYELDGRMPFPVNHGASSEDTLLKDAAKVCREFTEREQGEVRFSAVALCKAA
The experiment in a line: Reversible inhibition (jump dilution) assay with Ub-AMC. The format is biochemical. Details: rapidly targets endogenous UCHL1 in cells; endogenous in cells; host or cells: HEK293. The conditions noted are these: UCHL1 300 nM, compound 400 nM, 30 min, 100x dilution. As for the experimental part:
Figure S2. UCHL1 kinetics
(a) Kinetic analysis of UCHL1 (3 nM)-catalyzed cleavage of varied concentrations of Ub-AMC.
(b) Non-linear fit of Michaelis –Menten equation to initial reaction velocities versus Ub-AMC […]
(c) Apparent rate of inhibition (ka) of compound 1 and 2 at varying concentrations. Ub-AMC (130 nM) fluorescence intensity was measured in the presence of UCHL1 (3 nM). The apparent rate constant for inhibition, ka/I was determined by linear regression, giving the absolute value of the rate constant kobs/I values for […]
13000) M-1s-1, respectively. […]
intensity read immediately for 1 h. […]
The excess ligand was removed by washing with buffer D in an Amicon® Ultra MWCO 10 kDa centrifugation spin filter three times. The protein-adducts were desalted using 3× SDB-XC polystyrene-divinylbenzene copolymer extraction disks, following published methods.5 Samples were eluted with 50% (v/v) MeCN 0.5% (v/v) formic acid in LC-MS grade water and analyzed by LC-ESI (ACQUITY UPLC H-Class PLUS instrument (Waters)) using an ACQUITY UPLC BEH C4 column (Waters) coupled with Waters LCT Premier MS detector. […]
(§1) The MS data was analyzed by PEAKS Studio 8.5 (Bioinformatics Solutions Inc.). […]
(§2) Homogeneous time resolved fluorescence (HTRF) assay […]
(§3) BME) and incubated for 30 min at room temperature. […] The plates were sealed and incubated overnight at 4 °C then read using a PHERAstar (BMG), and the Delta F calculated: […]

The target in test [2] is T1, UCHL1. Briefly: UCHL1 covalent adduct determination by LC-ESI-MS. The class given is binding. Set-up: (residues 1-223, Uniprot P09936); GST (N, cleaved yes); made in house; host or cells: E. coli Rosetta 2(DE3), pGEX-6P-1. The conditions noted are these: UCHL1 5 μM, compound 13 μM, 60 min. The protocol:
(§4) values were plotted against compound concentration to afford the apparent second order rate constant for inhibition, ka/I. The absolute value of the second order rate constant kobs/I was […]
(§5) Reversible inhibition assay: Jump dilution assays were performed by incubating UCHL1 […]
(§6) negative controls (iodoacetamide (IAA) 10 mM) for 30 min at room temperature. The reaction […]
(§7) intensity read immediately for 1 h.
(§8) UCHL1 covalent adduct determination […]
(§9) pH 7.5) was incubated with compound 1, 2 (2.5 equiv.) or DMSO for 1 h at room temperature.
(§10) The excess ligand was removed by washing with buffer D in an Amicon® Ultra MWCO 10 kDa centrifugation spin filter three times. The protein-adducts were desalted using 3× SDB-XC polystyrene-divinylbenzene copolymer extraction disks, following published methods.5 Samples were eluted with 50% (v/v) MeCN 0.5% (v/v) formic acid in LC-MS grade water and analyzed by LC-ESI (ACQUITY UPLC H-Class PLUS instrument (Waters)) using an ACQUITY UPLC BEH C4 column (Waters) coupled with Waters LCT Premier MS detector.
UCHL1 covalent adduct site identification […]
as §1, §2, §3

The target of test [3] is T1, UCHL1. Briefly: UCHL1 covalent adduct site identification (tryptic digest, nanoLC-MS/MS, PEAKS). To be noted: for site of UCHL1 modification: UCHL1 5 μM, compound 13 μM, 1 h, tryptic digest. Details: (residues 1-223, Uniprot P09936); GST (N, cleaved yes); made in house; host or cells: E. coli Rosetta 2(DE3), pGEX-6P-1. The format is binding. The protocol:
b) 2 modification: 96% peptide sequence coverage
Figure S9. Identification of modification sites by nanoLC-MS/MS.
Recombinant UCHL1 (5 µM) was incubated with compound 1 or 2 (13 µM) for 1 h at room temperature. The labeled protein was digested with trypsin and analyzed by nanoLC-MS/MS.
The data was processed in PEAKS 8.0. 82% and 96% of UCHL1 peptide sequence coverage for (a) 1, or (b) 2 modification, respectively. The high confidence modification of compound 1 […]
Statistical data and peptide lists from PEAKS are detailed in Supplementary Data S1. […]
as §4, §5, §6, §7, §8, §9, §10
UCHL1 covalent adduct site identification
Compound-protein adduct samples were prepared as described above and digested with trypsin (Promega, 1:50 trypsin:UCHL1 ratio) at 37 °C, overnight. […]
as §1, §2, §3

Regarding `N#CN1CCC[C@H]1C(=O)N1CCc2c(-c3c[nH]c4ncccc34)cccc21` [Compound 1], the “reversibility of inhibition after dilution” value in test [1] is reported as “slowly reversible”. Moreover, in test [2], the “covalent modification of UCHL1 by LC-ESI-MS” value was “single modification”. For the same compound, the “site of UCHL1 modification” value in test [3] was “catalytic cysteine 90; also recorded: catalytic cysteine (Cys90)”.
As to `C#Cc1cnc2[nH]cc(-c3cccc4c3CCN4C(=O)[C@@H]3CCCN3C#N)c2c1` [Compound 2], the “reversibility of inhibition after dilution” value in test [1] is recorded as “slowly reversible”. In addition, the “covalent modification of UCHL1 by LC-ESI-MS” value in test [2] is “single modification”. In addition, in test [3], the “site of UCHL1 modification” value is given as “catalytic cysteine 90; also recorded: catalytic cysteine (Cys90)”. For the same compound, the “Peptide carrying the compound 2 modification (C, +381.16)” value in test [3] (recombinant UCHL1 (P09936) treated with compound 2, tryptic digest, PEAKS, PTM code n = Compound 2 modification (C)) is “QTIGNSC(+381.16)GTIGLIHAVANNQDKLGFEDGSVLK; also recorded: QTIGNSC(+381.16)GTIGLIHAVANNQDK; also recorded: QTIGNSC(+381.16)GTIGLIHAVANNQDKLGFEDGSVLKQFLSETEK”.
